Source: PubChem BioAssay (NCI)
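Step 1: Grow cells in 96-well plates. Step 2: Expose to compound for 48 hours at 5 concentrations. Step 3: Interpolate endpoints linearly; if unreached, use highest concentration. GI50 marks 50% less growth. TGI is the concentration that stops growth completely.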

How the values were obtained:
Assay in all cases: inhibition of tumour cell growth, NCI panel, 48 h
786-0 renal = system: 786-0 renal
A498 renal = system: A498 renal
A549 NSCLC = system: A549 NSCLC
ACHN renal = system: ACHN renal
BT-549 breast = system: BT-549 breast
CAKI-1 renal = system: CAKI-1 renal
CCRF-CEM leukemia = system: CCRF-CEM leukemia
COLO 205 colon = system: COLO 205 colon
EKVX NSCLC = system: EKVX NSCLC
HCT-116 colon = system: HCT-116 colon
HOP-92 NSCLC = system: HOP-92 NSCLC
HS 578T breast = system: HS 578T breast
HT29 colon = system: HT29 colon
IGROV1 ovarian = system: IGROV1 ovarian
K-562 leukemia = system: K-562 leukemia
KM12 colon = system: KM12 colon
LOX IMVI melanoma = system: LOX IMVI melanoma
M14 melanoma = system: M14 melanoma
MALME-3M melanoma = system: MALME-3M melanoma
MCF7 breast = system: MCF7 breast
MDA-MB-231 breast = system: MDA-MB-231 breast
MDA-MB-435 = system: MDA-MB-435
MDA-N = system: MDA-N
MOLT-4 leukemia = system: MOLT-4 leukemia
NCI-H226 lung = system: NCI-H226 lung
NCI-H23 lung = system: NCI-H23 lung
NCI-H522 lung = system: NCI-H522 lung
NCI/ADR-RES ovarian = system: NCI/ADR-RES ovarian
OVCAR-3 ovarian = system: OVCAR-3 ovarian
OVCAR-5 ovarian = system: OVCAR-5 ovarian
OVCAR-8 ovarian = system: OVCAR-8 ovarian
PC-3 prostate = system: PC-3 prostate
RPMI-8226 leukemia = system: RPMI-8226 leukemia
RXF 393 renal = system: RXF 393 renal
SF-268 CNS = system: SF-268 CNS
SF-295 CNS = system: SF-295 CNS
SF-539 CNS = system: SF-539 CNS
SK-MEL-2 melanoma = system: SK-MEL-2 melanoma
SK-MEL-28 melanoma = system: SK-MEL-28 melanoma
SK-MEL-5 melanoma = system: SK-MEL-5 melanoma
SK-OV-3 ovarian = system: SK-OV-3 ovarian
SNB-19 CNS = system: SNB-19 CNS
SNB-75 CNS = system: SNB-75 CNS
SR leukemia = system: SR leukemia
SW-620 colon = system: SW-620 colon
T-47D breast = system: T-47D breast
TK-10 renal = system: TK-10 renal
U251 CNS = system: U251 CNS
UACC-257 melanoma = system: UACC-257 melanoma
UACC-62 melanoma = system: UACC-62 melanoma
UO-31 renal = system: UO-31 renal
DU-145 prostate = system: DU-145 prostate
HCC-2998 colon = system: HCC-2998 colon
HCT-15 colon = system: HCT-15 colon
HL-60(TB) leukemia = system: HL-60(TB) leukemia
HOP-62 NSCLC = system: HOP-62 NSCLC
NCI-H460 lung = system: NCI-H460 lung
OVCAR-4 ovarian = system: OVCAR-4 ovarian
SN12C renal = system: SN12C renal

SMILES: O=C(O)c1nc2cc(C(F)(F)F)ccc2nc1Nc1ccc(F)cc1
- TGI (786-0 renal): 66000 nM
- TGI (A498 renal): 47700 nM
- TGI (A549 NSCLC): > 100000 nM
- TGI (ACHN renal): 35200 nM
- TGI (BT-549 breast): 46900 nM
- TGI (CAKI-1 renal): 74700 nM
- TGI (CCRF-CEM leukemia): > 100000 nM
- TGI (COLO 205 colon): 37100 nM
- TGI (EKVX NSCLC): 89600 nM
- TGI (HCT-116 colon): 48400 nM
- TGI (HOP-92 NSCLC): 39300 nM
- TGI (HS 578T breast): 74300 nM
- TGI (HT29 colon): > 100000 nM
- TGI (IGROV1 ovarian): 55900 nM
- TGI (K-562 leukemia): > 100000 nM
- TGI (KM12 colon): 30300 nM
- TGI (LOX IMVI melanoma): 48500 nM
- TGI (M14 melanoma): 82400 nM
- TGI (MALME-3M melanoma): 50900 nM
- TGI (MCF7 breast): 72900 nM
- TGI (MDA-MB-231 breast): 70800 nM
- TGI (MDA-MB-435): > 100000 nM
- TGI (MDA-N): 91000 nM
- TGI (MOLT-4 leukemia): 59800 nM
- TGI (NCI-H226 lung): > 100000 nM
- TGI (NCI-H23 lung): 38200 nM
- TGI (NCI-H522 lung): 75400 nM
- TGI (NCI/ADR-RES ovarian): > 100000 nM
- TGI (OVCAR-3 ovarian): 49800 nM
- TGI (OVCAR-5 ovarian): 93500 nM
- TGI (OVCAR-8 ovarian): 81700 nM
- TGI (PC-3 prostate): 31600 nM
- TGI (RPMI-8226 leukemia): > 100000 nM
- TGI (RXF 393 renal): 36000 nM
- TGI (SF-268 CNS): > 100000 nM
- TGI (SF-295 CNS): 58400 nM
- TGI (SF-539 CNS): 32400 nM
- TGI (SK-MEL-2 melanoma): 26500 nM
- TGI (SK-MEL-28 melanoma): > 100000 nM
- TGI (SK-MEL-5 melanoma): 48100 nM
- TGI (SK-OV-3 ovarian): > 100000 nM
- TGI (SNB-19 CNS): > 100000 nM
- TGI (SNB-75 CNS): 49500 nM
- TGI (SR leukemia): 55000 nM
- TGI (SW-620 colon): 68800 nM
- TGI (T-47D breast): > 100000 nM
- TGI (TK-10 renal): > 100000 nM
- TGI (U251 CNS): 59500 nM
- TGI (UACC-257 melanoma): 60200 nM
- TGI (UACC-62 melanoma): 31100 nM
- TGI (UO-31 renal): 35800 nM

SMILES: COc1ccc2nc3cccc([N+](=O)[O-])c3c(NCCCCCC(=O)O)c2c1
- GI50 (786-0 renal): 79.9 nM
- TGI (786-0 renal): 548 nM
- GI50 (A498 renal): 1870 nM
- TGI (A498 renal): 4280 nM
- GI50 (A549 NSCLC): 120 nM
- TGI (A549 NSCLC): 2170 nM
- GI50 (ACHN renal): 56.2 nM
- TGI (ACHN renal): 582 nM
- GI50 (BT-549 breast): 131 nM
- TGI (BT-549 breast): 422 nM
- GI50 (CAKI-1 renal): 36.5 nM
- TGI (CAKI-1 renal): 284 nM
- GI50 (CCRF-CEM leukemia): 39.7 nM
- TGI (CCRF-CEM leukemia): 302 nM
- TGI (COLO 205 colon): 78 nM
- GI50 (DU-145 prostate): 43 nM
- TGI (DU-145 prostate): 1020 nM
- GI50 (EKVX NSCLC): 297 nM
- TGI (EKVX NSCLC): 1970 nM
- GI50 (HCC-2998 colon): 1180 nM
- TGI (HCC-2998 colon): 2500 nM
- GI50 (HCT-116 colon): 10.7 nM
- TGI (HCT-116 colon): 3510 nM
- GI50 (HCT-15 colon): 25.1 nM
- GI50 (HL-60(TB) leukemia): 37.2 nM
- TGI (HL-60(TB) leukemia): 6200 nM
- GI50 (HOP-62 NSCLC): 27.7 nM
- TGI (HOP-62 NSCLC): 187 nM
- GI50 (HOP-92 NSCLC): 87.8 nM
- TGI (HOP-92 NSCLC): 456 nM
- GI50 (HS 578T breast): 456 nM
- TGI (HS 578T breast): 2030 nM
- GI50 (HT29 colon): 14 nM
- TGI (HT29 colon): 392 nM
- GI50 (IGROV1 ovarian): 231 nM
- TGI (IGROV1 ovarian): 1160 nM
- GI50 (K-562 leukemia): 10.9 nM
- TGI (K-562 leukemia): 25.1 nM
- GI50 (KM12 colon): 26.2 nM
- TGI (KM12 colon): 220 nM
- GI50 (LOX IMVI melanoma): 171 nM
- TGI (LOX IMVI melanoma): 487 nM
- GI50 (M14 melanoma): 15 nM
- TGI (M14 melanoma): 46.6 nM
- GI50 (MALME-3M melanoma): 43.7 nM
- TGI (MALME-3M melanoma): 194 nM
- GI50 (MCF7 breast): 17.4 nM
- TGI (MCF7 breast): 596 nM
- GI50 (MDA-MB-231 breast): 838 nM
- TGI (MDA-MB-231 breast): 74000 nM
- GI50 (MDA-N): 26.3 nM
- TGI (MDA-N): 117 nM
- GI50 (MOLT-4 leukemia): 26.6 nM
- TGI (MOLT-4 leukemia): 284 nM
- GI50 (NCI-H226 lung): 306 nM
- TGI (NCI-H226 lung): 1330 nM
- GI50 (NCI-H23 lung): 952 nM
- TGI (NCI-H23 lung): 4190 nM
- GI50 (NCI-H460 lung): 44.2 nM
- TGI (NCI-H460 lung): 806 nM
- GI50 (NCI-H522 lung): 36.3 nM
- TGI (NCI-H522 lung): 101 nM
- GI50 (NCI/ADR-RES ovarian): 313 nM
- TGI (NCI/ADR-RES ovarian): 2610 nM
- GI50 (OVCAR-3 ovarian): 120 nM
- TGI (OVCAR-3 ovarian): 2640 nM
- GI50 (OVCAR-4 ovarian): 393 nM
- TGI (OVCAR-4 ovarian): 1720 nM
- GI50 (OVCAR-5 ovarian): 132 nM
- TGI (OVCAR-5 ovarian): 1110 nM
- GI50 (OVCAR-8 ovarian): 87.7 nM
- TGI (OVCAR-8 ovarian): 2220 nM
- TGI (PC-3 prostate): 1360 nM
- GI50 (RPMI-8226 leukemia): 13.1 nM
- TGI (RPMI-8226 leukemia): 52 nM
- GI50 (SF-268 CNS): 75.5 nM
- TGI (SF-268 CNS): 701 nM
- GI50 (SF-295 CNS): 447 nM
- TGI (SF-295 CNS): 4550 nM
- GI50 (SF-539 CNS): 404 nM
- TGI (SF-539 CNS): 1440 nM
- GI50 (SK-MEL-2 melanoma): 34.2 nM
- TGI (SK-MEL-2 melanoma): 117 nM
- GI50 (SK-MEL-28 melanoma): 159 nM
- TGI (SK-MEL-28 melanoma): 548 nM
- GI50 (SK-MEL-5 melanoma): 11.6 nM
- TGI (SK-MEL-5 melanoma): 69.4 nM
- GI50 (SK-OV-3 ovarian): 915 nM
- TGI (SK-OV-3 ovarian): 5410 nM
- GI50 (SN12C renal): 131 nM
- TGI (SN12C renal): 1160 nM
- GI50 (SNB-19 CNS): 178 nM
- TGI (SNB-19 CNS): 2840 nM
- GI50 (SNB-75 CNS): 282 nM
- TGI (SNB-75 CNS): 1570 nM
- GI50 (SR leukemia): 39.5 nM
- TGI (SW-620 colon): 268 nM
- GI50 (T-47D breast): 856 nM
- TGI (T-47D breast): 12000 nM
- GI50 (TK-10 renal): 1720 nM
- TGI (TK-10 renal): 17600 nM
- GI50 (U251 CNS): 22.2 nM
- TGI (U251 CNS): 2460 nM
- GI50 (UACC-257 melanoma): 257 nM
- TGI (UACC-257 melanoma): 926 nM
- GI50 (UACC-62 melanoma): 183 nM
- TGI (UACC-62 melanoma): 465 nM
- GI50 (UO-31 renal): 161 nM
- TGI (UO-31 renal): 484 nM
